Assay results from patent US10966426B2, “Herbicidal compositions comprising phenylpyrimidines” (BASF SE, priority 2016, dated 2021).

Key:
Assay type in all cases: in vivo
Poa annua = test: greenhouse post-emergence treatment, POAAN; settings: Poa annua
Protocol: (§1) The culture containers used were plastic pots containing loamy sand with approximately 3.0% of humus as substrate. The seeds of the test plants were sown separately for each species.
(§2) For the post-emergence treatment, the test plants were grown to a plant height of from 3 to 15 cm, depending on the plant habit, and only then treated with the active compounds which had been suspended or emulsified in water. To this end, the test plants were either sown directly, and grown in the same containers, or they were first grown separately as seedlings and transplanted into the test containers a few days prior to treatment.
(§3) Depending on the species, the plants were kept at 10-25° C. and 20-35° C., respectively.
(§4) The test period extended over 2 to 4 weeks. During this time, the plants were tended and their response to the individual treatments was evaluated.
(§5) Evaluation was carried out using a scale from 0 to 100. 100 means no emergence of the plants, or complete destruction of at least the above-ground parts, and 0 means no damage or normal course of growth. A good herbicidal activity is given at values of at least 70, and very good herbicidal activity is given at values of at least 85.
(§6) The respective stated components A and B, and if appropriate, C were formulated as a 10% by weight strength emulsion concentrate and, with addition of the amount of solvent system, introduced into the spray liquor used for applying the active compound. In the examples, the solvent used was water.
(§7) In the examples below, using the method of S. R. Colby (1967) “Calculating synergistic and antagonistic responses of herbicide combinations”, Weeds 15, p. 22ff., the value E, which is expected if the activity of the individual active compounds is only additive, was calculated. E=X+Y−(X·Y/100) where X=effect in percent using herbicide A at an application rate a; • Y=effect in percent using herbicide B at application rate b; • E=expected effect (in %) of herbicide A+herbicide B at application rates a+b.

Papaver rhoeas = test: greenhouse post-emergence treatment, PAPRH; settings: Papaver rhoeas, 480 h, PAPRH, 20 DAT
Protocol: as §1, §2, §3, §4, §5, §6, §7

Avena fatua = test: greenhouse post-emergence treatment, AVEFA; settings: Avena fatua, AVEFA; for pest or weed control at 12.5 g/ha: 480 h, 20 DAT; for inhibition at 500000 µg/mL (stock): sc, 504 h, 21 DAT
Protocol: as §1
(§8) To this end, the test plants were either sown directly, and grown in the same containers, or they were first grown separately as seedlings and transplanted into the test containers a few days prior to treatment.
as §3, §4, §5
(§9) In the examples, the solvent used was water.
(§10) In the examples below, using the method of S. R. Colby (1967) “Calculating synergistic and antagonistic responses of herbicide combinations”, Weeds 15, p. […] E=X+Y−(X·Y/100) where X=effect in percent using herbicide A at an application rate a; • Y=effect in percent using herbicide B at application rate b; • E=expected effect (in %) of herbicide A+herbicide B at application rates a+b.

Matricaria chamomilla = test: greenhouse post-emergence treatment, MATCH; settings: Matricaria chamomilla; for inhibition at 500000 µg/mL (stock): sc, 504 h, MATCH, 21 DAT
Protocol: as §1, §2, §3, §4, §5, §6, §7

Lolium multiflorum = test: greenhouse post-emergence treatment, LOLMU; settings: Lolium multiflorum, LOLMU; for inhibition at 500000 µg/mL (stock): sc, 504 h, 21 DAT
Protocol: as §1, §8, §3, §4, §5, §9, §10

Polygonum convolvulus = test: greenhouse post-emergence treatment, POLCO; settings: Fallopia convolvulus; for inhibition at 500000 µg/mL (stock): sc, 504 h, POLCO, 21 DAT
Protocol: as §1, §2, §3, §4, §5, §6, §7

Bromus sterilis = test: greenhouse post-emergence treatment, BROST
Protocol: as §1, §8, §3, §4, §5, §9, §10

Brachiaria decumbens = test: greenhouse post-emergence treatment, BRADC; settings: for inhibition at 500000 µg/mL (stock): sc, 504 h, 21 DAT
Protocol: as §1, §2, §3, §4, §5, §6, §7

Polygonum aviculare = test: greenhouse post-emergence treatment, POLAV; settings: POLAV
Protocol: as §1, §2, §3, §4, §5, §6, §7

Setaria viridis = test: greenhouse post-emergence treatment, SETVI; settings: Setaria viridis, sc, 504 h, SETVI, 21 DAT, solo metazachlor (SC 500 g/l) 31.25 gai/ha
Protocol: as §1, §8, §3, §4, §5, §9, §10

Galium aparine = test: greenhouse post-emergence treatment, GALAP; settings: Galium aparine, 504 h, GALAP, 21 DAT, solo metazachlor (SC 500 g/l) 250 gai/ha
Protocol: as §1, §2, §3, §4, §5, §6, §7

Stellaria media = test: greenhouse post-emergence treatment, STEME; settings: Stellaria media, sc, 504 h, STEME, 21 DAT
Protocol: as §1, §2, §3, §4, §5, §6, §7

Digitaria sanguinalis = test: greenhouse post-emergence treatment, DIGSA; settings: Digitaria sanguinalis, sc, 504 h, DIGSA, 21 DAT
Protocol: as §1, §8, §3, §4, §5, §9, §10

[1] = solo cycloxydim (EC 100 g/l) 12.5 gai/ha
[2] = solo metazachlor (SC 500 g/l) 62.5 gai/ha
[3] = solo metazachlor (SC 500 g/l) 125 gai/ha
[4] = solo metazachlor (SC 500 g/l) 250 gai/ha
[5] = solo metazachlor (SC 500 g/l) 31.25 gai/ha

CCCC(=NOCC)C1=C(O)CC(C2CCCSC2)CC1=O (centres unmarked) [cycloxydim]
0%: pest or weed control at 12.5 g/ha (Poa annua; 480 h) | pest or weed control at 25 g/ha (Poa annua; 480 h) | pest or weed control at 50 g/ha (Poa annua; 480 h) | pest or weed control at 100 g/ha (Poa annua; 480 h) | pest or weed control at 12.5 g/ha (Papaver rhoeas; [1]) | pest or weed control at 100 g/ha (Papaver rhoeas; solo cycloxydim (EC 100 g/l) 100 gai/ha) | pest or weed control at 12.5 g/ha (Matricaria chamomilla; 480 h) | pest or weed control at 25 g/ha (Matricaria chamomilla; 480 h) | pest or weed control at 50 g/ha (Matricaria chamomilla; 480 h) | pest or weed control at 100 g/ha (Matricaria chamomilla; 480 h) | pest or weed control at 12.5 g/ha (Polygonum convolvulus; 480 h) | pest or weed control at 25 g/ha (Polygonum convolvulus; 480 h) | pest or weed control at 50 g/ha (Polygonum convolvulus; 480 h) | pest or weed control at 100 g/ha (Polygonum convolvulus; 480 h) | % activity (Polygonum aviculare; 20 DAT, solo cycloxydim (EC 100 g/l) 12.5 gai/ha) | % activity (Polygonum aviculare; 20 DAT, solo cycloxydim (EC 100 g/l) 25 gai/ha) | % activity (Polygonum aviculare; 20 DAT, solo cycloxydim (EC 100 g/l) 50 gai/ha) | % activity (Polygonum aviculare; 20 DAT, solo cycloxydim (EC 100 g/l) 100 gai/ha) | % activity (Polygonum aviculare; cycloxydim solo (EC 100 g/l), 12.5 gai/ha, 20 DAT) | % activity (Polygonum aviculare; cycloxydim solo (EC 100 g/l), 25 gai/ha, 20 DAT) | % activity (Polygonum aviculare; cycloxydim solo (EC 100 g/l), 100 gai/ha, 20 DAT)
90%: pest or weed control at 12.5 g/ha (Lolium multiflorum; 480 h, cycloxydim solo (EC 100 g/l), 12.5 gai/ha, 20 DAT)
25%: % activity (Bromus sterilis; BROST, 20 DAT, solo cycloxydim (EC 100 g/l) 12.5 gai/ha) | pest or weed control at 12.5 g/ha (Bromus sterilis; Bromus sterilis, 480 h)
20%: pest or weed control at 12.5 g/ha (Avena fatua; [1]) | pest or weed control at 12.5 g/ha (Avena fatua; cycloxydim solo (EC 100 g/l), 12.5 gai/ha)
65%: % activity (Brachiaria decumbens; BRADC, 20 DAT, solo cycloxydim (EC 100 g/l) 12.5 gai/ha) | pest or weed control at 12.5 g/ha (Brachiaria decumbens; Urochloa decumbens, 480 h)

Cc1cccc(C)c1N(Cn1cccn1)C(=O)CCl [metazachlor]
35%: inhibition at 500000 µg/mL (stock) (Stellaria media; [4])
30%: inhibition at 500000 µg/mL (stock) (Lolium multiflorum; [5])
25%: inhibition at 500000 µg/mL (stock) (Stellaria media; [3]) | inhibition at 500000 µg/mL (stock) (Brachiaria decumbens; Urochloa decumbens, BRADC, solo metazachlor (SC 500 g/l) 125 gai/ha) | inhibition at 500000 µg/mL (stock) (Polygonum aviculare; Polygonum aviculare, 504 h, 21 DAT, solo metazachlor (SC 500 g/l) 125 gai/ha)
65%: inhibition at 500000 µg/mL (stock) (Setaria viridis)
75%: inhibition at 500000 µg/mL (stock) (Digitaria sanguinalis; [4])
10%: inhibition at 500000 µg/mL (stock) (Avena fatua; [2]) | inhibition at 500000 µg/mL (stock) (Avena fatua; [4]) | inhibition at 500000 µg/mL (stock) (Polygonum convolvulus; [3]) | inhibition at 500000 µg/mL (stock) (Brachiaria decumbens; Urochloa decumbens, BRADC, solo metazachlor (SC 500 g/l) 31.25 gai/ha)
60%: inhibition at 500000 µg/mL (stock) (Brachiaria decumbens; Urochloa decumbens, BRADC, solo metazachlor (SC 500 g/l) 250 gai/ha)
20%: inhibition at 500000 µg/mL (stock) (Matricaria chamomilla; [4]) | inhibition at 500000 µg/mL (stock) (Polygonum convolvulus; [4]) | inhibition at 500000 µg/mL (stock) (Brachiaria decumbens; Urochloa decumbens, BRADC, solo metazachlor (SC 500 g/l) 62.5 gai/ha) | % activity (Polygonum aviculare; metazachlor solo (SC 500 g/l), 31.25 gai/ha, 21 DAT)
85%: inhibition at 500000 µg/mL (stock) (Poa annua; 504 h, POAAN, 21 DAT, solo metazachlor (SC 500 g/l) 250 gai/ha) | inhibition at 500000 µg/mL (stock) (Lolium multiflorum; [3]) | inhibition at 500000 µg/mL (stock) (Lolium multiflorum; [4]) | inhibition at 500000 µg/mL (stock) (Galium aparine)
0%: inhibition at 500000 µg/mL (stock) (Avena fatua; [3]) | inhibition at 500000 µg/mL (stock) (Matricaria chamomilla; [5]) | inhibition at 500000 µg/mL (stock) (Matricaria chamomilla; [2]) | inhibition at 500000 µg/mL (stock) (Polygonum convolvulus; [5]) | inhibition at 500000 µg/mL (stock) (Polygonum convolvulus; [2]) | inhibition at 500000 µg/mL (stock) (Stellaria media; [5]) | inhibition at 500000 µg/mL (stock) (Stellaria media; [2]) | inhibition at 500000 µg/mL (stock) (Digitaria sanguinalis; [5])
